Test results from ChEMBL document CHEMBL4004838, “Design and synthesis of novel phenyl -1, 4-beta-carboline-hybrid molecules as potential anticancer agents” (Eur J Med Chem, 2017).

Columns and labels:
[1] = system: NCI-H322M; assay: Growth inhibition of human NCI-H322M cells assessed as cell growth at 0.01 uM incubated for 48 hrs by sulforhodamine B assay relative to control; type: functional; details: read-out: Activity
[2] = system: SNB-75; assay: Growth inhibition of human SNB75 cells assessed as cell growth at 100 uM incubated for 48 hrs by sulforhodamine B assay relative to control; type: functional; details: SNB-75, 48 h, read-out: Activity
[3] = system: COLO 205; assay: Growth inhibition of human COLO205 cells assessed as cell growth at 0.01 uM incubated for 48 hrs by sulforhodamine B assay relative to control; type: functional; details: COLO 205, 48 h, read-out: Activity
[4] = system: NCI-H23; assay: Growth inhibition of human NCI-H23 cells incubated for 48 hrs by sulforhodamine B assay; type: functional; details: NCI-H23, 48 h
[5] = system: BT-549; assay: Growth inhibition of human BT549 cells assessed as cell growth at 0.1 uM incubated for 48 hrs by sulforhodamine B assay relative to control; type: functional; details: BT-549, 48 h, read-out: Activity
[6] = system: BT-549; assay: Growth inhibition of human BT549 cells incubated for 48 hrs by sulforhodamine B assay; type: functional; details: BT-549, 48 h
[7] = system: IGROV-1; assay: Growth inhibition of human IGROV1 cells incubated for 48 hrs by sulforhodamine B assay; type: functional; details: IGROV-1, 48 h
[8] = system: COLO 205; assay: Growth inhibition of human COLO205 cells assessed as cell growth at 100 uM incubated for 48 hrs by sulforhodamine B assay relative to control; type: functional; details: COLO 205, 48 h, read-out: Activity
[9] = system: K562; assay: Growth inhibition of human K562 cells assessed as cell growth at 100 uM incubated for 48 hrs by sulforhodamine B assay relative to control; type: functional; details: K562, 48 h, read-out: Activity
[10] = system: 786-0; assay: Growth inhibition of human 786-0 cells assessed as cell growth at 1 uM incubated for 48 hrs by sulforhodamine B assay relative to control; type: functional; details: 786-0, 48 h, read-out: Activity
[11] = system: RXF 393; assay: Growth inhibition of human RXF393 cells incubated for 48 hrs by sulforhodamine B assay; type: functional; details: RXF 393, 48 h
[12] = system: HOP-92; assay: Growth inhibition of human HOP92 cells assessed as cell growth at 1 uM incubated for 48 hrs by sulforhodamine B assay relative to control; type: functional; details: HOP-92, 48 h, read-out: Activity
[13] = system: NCI-H460; assay: Growth inhibition of human NCI-H460 cells assessed as cell growth at 1 uM incubated for 48 hrs by sulforhodamine B assay relative to control; type: functional; details: NCI-H460, 48 h, read-out: Activity
[14] = system: U-251; assay: Growth inhibition of human U251 cells incubated for 48 hrs by sulforhodamine B assay; type: functional; details: U-251, 48 h
[15] = system: OVCAR-3; assay: Growth inhibition of human OVCAR3 cells assessed as cell growth at 0.01 uM incubated for 48 hrs by sulforhodamine B assay relative to control; type: functional; details: OVCAR-3, 48 h, read-out: Activity
[16] = system: K562; assay: Growth inhibition of human K562 cells assessed as cell growth at 0.01 uM incubated for 48 hrs by sulforhodamine B assay relative to control; type: functional; details: K562, 48 h, read-out: Activity
[17] = target: Albumin (Bos taurus, UniProt P02769); assay: Binding affinity to Bovine serum albumin assessed as at 0.10 to 1 uM by UV-Visible spectrophotometric method; type: ADME; details: cattle, isolated protein
Chain of Albumin (P02769 whole entry): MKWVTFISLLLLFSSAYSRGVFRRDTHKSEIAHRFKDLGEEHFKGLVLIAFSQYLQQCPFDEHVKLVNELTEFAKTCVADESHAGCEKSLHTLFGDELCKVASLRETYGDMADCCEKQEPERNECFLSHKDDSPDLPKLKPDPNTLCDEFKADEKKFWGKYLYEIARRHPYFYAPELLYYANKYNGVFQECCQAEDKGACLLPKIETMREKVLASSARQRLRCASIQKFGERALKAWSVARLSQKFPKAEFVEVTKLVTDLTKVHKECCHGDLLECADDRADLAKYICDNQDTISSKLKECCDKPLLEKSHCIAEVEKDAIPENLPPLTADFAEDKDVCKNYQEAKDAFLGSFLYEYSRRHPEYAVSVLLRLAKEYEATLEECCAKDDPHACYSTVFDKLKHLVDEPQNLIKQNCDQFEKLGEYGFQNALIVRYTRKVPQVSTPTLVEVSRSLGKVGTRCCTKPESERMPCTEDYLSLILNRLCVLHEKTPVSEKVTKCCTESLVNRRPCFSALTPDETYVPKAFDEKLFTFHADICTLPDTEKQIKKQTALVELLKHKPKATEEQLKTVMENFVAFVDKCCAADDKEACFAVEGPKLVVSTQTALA

[18] = system: A549; assay: Growth inhibition of human A549/ATCC cells assessed as cell growth at 1 uM incubated for 48 hrs by sulforhodamine B assay relative to control; type: functional; details: A549, 48 h, read-out: Activity
[19] = system: KM12; assay: Growth inhibition of human KM12 cells assessed as cell growth at 0.1 uM incubated for 48 hrs by sulforhodamine B assay relative to control; type: functional; details: KM12, 48 h, read-out: Activity
[20] = system: 786-0; assay: Growth inhibition of human 786-0 cells assessed as cell growth at 0.1 uM incubated for 48 hrs by sulforhodamine B assay relative to control; type: functional; details: 786-0, 48 h, read-out: Activity
[21] = system: SNB-75; assay: Growth inhibition of human SNB75 cells incubated for 48 hrs by sulforhodamine B assay; type: functional; details: SNB-75, 48 h
[22] = system: SNB-19; assay: Growth inhibition of human SNB19 cells assessed as cell growth at 1 uM incubated for 48 hrs by sulforhodamine B assay relative to control; type: functional; details: SNB-19, 48 h, read-out: Activity
[23] = system: HL-60(TB); assay: Growth inhibition of human HL-60(TB) cells assessed as cell growth at 0.01 uM incubated for 48 hrs by sulforhodamine B assay relative to control; type: functional; details: HL-60, 48 h, read-out: Activity
[24] = system: HT-29; assay: Growth inhibition of human HT-29 cells assessed as cell growth at 1 uM incubated for 48 hrs by sulforhodamine B assay relative to control; type: functional; details: HT-29, 48 h, read-out: Activity
[25] = system: KM12; assay: Growth inhibition of human KM12 cells assessed as cell growth at 0.01 uM incubated for 48 hrs by sulforhodamine B assay relative to control; type: functional; details: KM12, 48 h, read-out: Activity
[26] = system: PC-3; assay: Growth inhibition of human PC3 cells assessed as cell growth at 0.1 uM incubated for 48 hrs by sulforhodamine B assay relative to control; type: functional; details: PC-3, 48 h, read-out: Activity
[27] = system: SF-295; assay: Growth inhibition of human SF295 cells incubated for 48 hrs by sulforhodamine B assay; type: functional; details: SF-295, 48 h
[28] = system: SF-295; assay: Growth inhibition of human SF295 cells assessed as cell growth at 0.01 uM incubated for 48 hrs by sulforhodamine B assay relative to control; type: functional; details: SF-295, 48 h, read-out: Activity
[29] = system: UO-31; assay: Growth inhibition of human UO31 cells assessed as cell growth at 100 uM incubated for 48 hrs by sulforhodamine B assay relative to control; type: functional; details: UO-31, 48 h, read-out: Activity
[30] = system: KM12; assay: Growth inhibition of human KM12 cells assessed as cell growth at 1 uM incubated for 48 hrs by sulforhodamine B assay relative to control; type: functional; details: KM12, 48 h, read-out: Activity
[31] = read-out: LC50 (the source's name)
[32] = read-out: pLC50 (the source's name) (converted)

Molecule c1ccc2[nH]c(-c3ccc(-c4nccc5c4[nH]c4ccccc45)cc3)nc2c1 has a growth at 0.01 µM [1] of 92%, a growth at 100 µM [2] of 84% and a growth at 0.01 µM [3] of 94%. For the same molecule, the CC50 [4, 31] was 8.7 µM, the GI50 ([4]; read-out: pGI50 (converted)) was 3.47 µM and the CC50 [4, 32] was 87.1 µM. The TGI ([4]; read-out: pTGI (converted)) was 17.8 µM, the growth at 0.1 µM [5] was 92% and the GI50 ([6]; read-out: GI50) was 2.12 µM. The CC50 [6, 31] was 7.21 µM, the TGI ([6]; read-out: TGI) was 5.42 µM and the GI50 ([6]; read-out: pGI50 (converted)) was 2.14 µM. The CC50 [6, 32] was 72.4 µM, the TGI ([6]; read-out: pTGI (converted)) was 5.37 µM and the GI50 ([7]; read-out: GI50) was 4.73 µM. The CC50 [7, 31] was > 1 µM, the GI50 ([7]; read-out: pGI50 (converted)) was 4.68 µM and the CC50 [7, 32] was > 100 µM. The TGI ([7]; read-out: pTGI (converted)) was 22.4 µM, the growth at 100 µM [8] was 65% and the growth at 100 µM [9] was 59%. The growth at 1 µM [10] was 89%, the GI50 ([11]; read-out: GI50) was 1.93 µM and the CC50 [11, 31] was 6.45 µM. For the same molecule, the TGI ([11]; read-out: TGI) was 3.53 µM, the GI50 ([11]; read-out: pGI50 (converted)) was 1.95 µM and the CC50 [11, 32] was 6.46 µM. The TGI ([11]; read-out: pTGI (converted)) was 3.55 µM, the growth at 1 µM [12] was 85% and the growth at 1 µM [13] was 97%. For the same molecule, the GI50 ([14]; read-out: GI50) was 2.74 µM, the LC50 ([14]; read-out: LC50) was 4.05 µM and the TGI ([14]; read-out: TGI) was 7.83 µM. For the same molecule, the GI50 ([14]; read-out: pGI50 (converted)) was 2.75 µM, the LC50 ([14]; read-out: pLC50 (converted)) was 40.7 µM and the TGI ([14]; read-out: pTGI (converted)) was 7.76 µM. For the same molecule, the growth at 0.01 µM [15] was 101%, the growth at 0.01 µM [16] was 104% and the Activity [17] was “Active”. For the same molecule, the growth at 1 µM [18] was 96%, the growth at 0.1 µM [19] was 96% and the growth at 0.1 µM [20] was 92%. It also gave a GI50 ([21]; read-out: GI50) of 1.57 µM, a CC50 [21, 31] of 1.19 µM and a TGI ([21]; read-out: TGI) of 4.08 µM. For the same molecule, the GI50 ([21]; read-out: pGI50 (converted)) was 1.58 µM, the CC50 [21, 32] was 12 µM and the TGI ([21]; read-out: pTGI (converted)) was 4.07 µM. For the same molecule, the growth at 1 µM [22] was 88%, the growth at 0.01 µM [23] was 95% and the growth at 1 µM [24] was 106%. The growth at 0.01 µM [25] was 95%, the growth at 0.1 µM [26] was 100% and the GI50 ([27]; read-out: GI50) was 1.92 µM. It also gave an LC50 ([27]; read-out: LC50) of 8.34 µM, a TGI ([27]; read-out: TGI) of 4 µM and a GI50 ([27]; read-out: pGI50 (converted)) of 1.91 µM. It also gave an LC50 ([27]; read-out: pLC50 (converted)) of 8.32 µM, a TGI ([27]; read-out: pTGI (converted)) of 3.98 µM and a growth at 0.01 µM [28] of 90%. For the same molecule, the growth at 100 µM [29] was 82% and the growth at 1 µM [30] was 89%.
